Reference: DBAASP
≈ marks a conversion by molar mass, not a printed value. Blank lines part the entries; values can stand above or below the molecule they belong to.

Key:
Experiment in all cases: ≥ marks a high value that may be exact or a test limit, other limits are often not marked, values filed in µg/mL are converted to µM
[1] = system: Pseudomonas aeruginosa ATCC 9027
[2] = system: Staphylococcus aureus ATCC 6538
[3] = system: Enterococcus faecalis ATCC 29212
[4] = system: Escherichia coli ATCC 25922
[5] = system: Klebsiella pneumoniae ATCC 700603
[6] = system: Candida albicans ATCC 90028
[7] = system: Pseudomonas aeruginosa ATCC 27853
[8] = system: Staphylococcus aureus ATCC 29213
[9] = system: Candida albicans ATCC 2002
[10] = system: Staphylococcus aureus ATCC 25923
[11] = system: Salmonella typhimurium KCTC 1926
[12] = system: Escherichia coli UB1005
[13] = system: Pseudomonas aeruginosa PAO1
[14] = system: Candida albicans ATCC 10231

SMILES: CC(C)C[C@H](NC(=O)[C@H](C)NC(=O)[C@H](CC(C)C)NC(=O)[C@H](CCCCN)NC(=O)[C@H](C)NC(=O)[C@H](CC(C)C)NC(=O)[C@H](CCCCN)NC(=O)[C@H](CCCCN)NC(=O)[C@H](C)NC(=O)[C@H](CC(C)C)NC(=O)[C@H](CCCCN)NC(=O)[C@H](CCCCN)NC(=O)[C@H](C)NC(=O)[C@@H](N)Cc1ccccc1)C(N)=O [FAKKLAKKLAKLAL]
MIC [1]: 64.8 µM (≈ 99.9 µg/mL)
MIC [2]: 3.24 µM (≈ 5 µg/mL)

SMILES: CC(C)C[C@H](NC(=O)[C@H](C)NC(=O)[C@H](CCCCN)NC(=O)[C@H](C)NC(=O)[C@H](CC(C)C)NC(=O)[C@H](CCCCN)NC(=O)[C@H](CCCCN)NC(=O)[C@H](C)NC(=O)[C@H](CC(C)C)NC(=O)[C@H](CCCCN)NC(=O)[C@H](C)NC(=O)[C@H](CC(C)C)NC(=O)[C@H](CCCCN)NC(=O)[C@H](CCCCN)NC(=O)[C@H](C)NC(=O)[C@@H](N)Cc1ccccc1)C(N)=O [FAKKLAKLAKKLAKAL]
MIC [1]: 115 µM (≈ 200 µg/mL)
MIC [2]: > 115 µM

SMILES: CC(C)C[C@H](NC(=O)[C@H](CCCCN)NC(=O)[C@H](CC(C)C)NC(=O)[C@H](CCCCN)NC(=O)[C@H](CC(C)C)NC(=O)[C@H](C)NC(=O)[C@H](CCCCN)NC(=O)[C@H](C)NC(=O)[C@H](CC(C)C)NC(=O)[C@H](CC(C)C)NC(=O)[C@H](CCCCN)NC(=O)[C@H](C)NC(=O)[C@@H](N)Cc1ccccc1)C(N)=O [FAKLLAKALKLKL]
MIC [1]: 17.2 µM (≈ 25 µg/mL)
MIC [2]: 6.86 µM (≈ 9.99 µg/mL)

SMILES: CC(C)C[C@H](NC(=O)[C@H](CCCCN)NC(=O)[C@H](C)NC(=O)[C@H](CC(C)C)NC(=O)[C@H](CC(C)C)NC(=O)[C@H](CCCCN)NC(=O)[C@H](C)NC(=O)[C@@H](N)Cc1ccccc1)C(=O)N[C@@H](C)C(=O)N[C@@H](CCCCN)C(=O)N[C@@H](C)C(=O)N[C@@H](CCCCN)C(=O)N[C@@H](C)C(N)=O [FAKLLAKLAKAKA]
MIC [1]: 146 µM (≈ 200 µg/mL)
MIC [2]: 72.8 µM (≈ 99.9 µg/mL)

SMILES: CC(C)C[C@H](NC(=O)[C@H](C)NC(=O)[C@H](CCCCN)NC(=O)[C@H](CCCCN)NC(=O)[C@H](CC(C)C)NC(=O)[C@H](C)NC(=O)[C@H](CCCCN)NC(=O)[C@H](Cc1ccccc1)NC(=O)[C@H](CC(C)C)NC(=O)[C@H](CC(C)C)NC(=O)[C@H](CCCCN)NC(=O)[C@H](C)NC(=O)[C@@H](N)Cc1ccccc1)C(N)=O [FAKLLFKALKKAL]
MIC [1]: 134 µM (≈ 200 µg/mL)
MIC [2]: 33.5 µM (≈ 50 µg/mL)

SMILES: CC[C@H](C)[C@H](NC(=O)[C@H](CCCN=C(N)N)NC(=O)[C@H](CCC(N)=O)NC(=O)[C@@H](NC(=O)[C@@H](NC(=O)[C@H](CCCN=C(N)N)NC(=O)[C@@H](N)CCCCN)[C@@H](C)CC)C(C)C)C(=O)N[C@@H](CCCCN)C(=O)N[C@@H](CC(=O)O)C(=O)N[C@@H](Cc1ccccc1)C(=O)N[C@@H](CC(C)C)C(=O)N[C@@H](CCCCN)C(=O)O [KRIVQRIKDFLK]
MIC [6]: 10 µM (≈ 15.4 µg/mL)
MIC [4]: 5 µM (≈ 7.72 µg/mL)
MIC [7]: 5 µM (≈ 7.72 µg/mL)
MIC [8]: 10 µM (≈ 15.4 µg/mL)

SMILES: CC[C@H](C)[C@H](NC(=O)[C@@H](NC(=O)[C@@H](NC(=O)[C@H](CCCN=C(N)N)NC(=O)[C@@H](NC(=O)[C@@H](NC(=O)[C@H](CC(C)C)NC(=O)[C@@H]1CCCN1C(=O)[C@H](Cc1c[nH]c2ccccc12)NC(=O)[C@@H](NC(=O)[C@H](CCCN=C(N)N)NC(=O)[C@H](CCCCN)NC(=O)[C@@H](NC(=O)[C@@H](N)CCCN=C(N)N)C(C)C)C(C)C)C(C)C)[C@@H](C)CC)[C@@H](C)O)C(C)C)C(=O)N[C@@H](C)C(=O)NCC(=O)N[C@@H](Cc1ccc(O)cc1)C(=O)N[C@@H](CC(N)=O)C(=O)N[C@@H](CC(C)C)C(=O)O [RVKRVWPLVIRTVIAGYNL]
MIC [11]: ≥ 32 µM

Continued, values first:

MIC [3]: 58.2 µM (≈ 100 µg/mL)
MIC [4]: 116 µM (≈ 200 µg/mL)
SMILES: CSCC[C@H](NC(=O)[C@H](CCCN=C(N)N)NC(=O)[C@H](Cc1c[nH]c2ccccc12)NC(=O)[C@H](CCC(N)=O)NC(=O)[C@H](Cc1c[nH]c2ccccc12)NC(=O)[C@H](CCCN=C(N)N)NC(=O)[C@H](CCCN=C(N)N)NC(=O)[C@H](C)NC(=O)[C@H](CCCCN)NC(=O)[C@@H](N)Cc1ccccc1)C(=O)N[C@@H](CCCCN)C(=O)N[C@@H](CCCCN)C(=O)O [FKARRWQWRMKK]

MIC [4]: 13.1 µM (≈ 32 µg/mL)
MIC [5]: 13.1 µM (≈ 32 µg/mL)
SMILES: CC[C@H](C)[C@H](NC(=O)[C@@H](NC(=O)[C@@H]1CCCN1C(=O)[C@@H](NC(=O)[C@@H]1CCCN1C(=O)[C@H](CCCCN)NC(=O)[C@H](CCCCN)NC(=O)[C@H](CO)NC(=O)CN)C(C)C)[C@@H](C)CC)C(=O)N[C@@H](Cc1ccc(O)cc1)C(=O)N[C@H]1CSSC[C@@H](C(=O)N[C@@H](CCC(N)=O)C(=O)N[C@@H](CCCN=C(N)N)C(=O)N[C@@H](CCSC)C(=O)O)NC(=O)[C@H](CCCCN)NC(=O)CNC(=O)[C@H](CO)NC(=O)[C@H](CCCN=C(N)N)NC(=O)[C@H](CCCN=C(N)N)NC(=O)[C@H](CCC(N)=O)NC1=O [GSKKPVPIIYCQRRSGKCQRM]

MIC [6]: ≥ 40 µM
MIC [4]: 2.5 µM (≈ 3.64 µg/mL)
MIC [7]: 5 µM (≈ 7.29 µg/mL)
MIC [8]: 10 µM (≈ 14.6 µg/mL)
SMILES: CC[C@H](C)[C@H](NC(=O)[C@H](CCCN=C(N)N)NC(=O)[C@H](CCC(N)=O)NC(=O)[C@H](C)NC(=O)[C@H](C)NC(=O)[C@H](CCCN=C(N)N)NC(=O)[C@@H](N)CCCCN)C(=O)N[C@@H](CCCCN)C(=O)N[C@@H](C)C(=O)N[C@@H](Cc1ccccc1)C(=O)N[C@@H](CC(C)C)C(=O)N[C@@H](CCCN=C(N)N)C(=O)O [KRAAQRIKAFLR]

MIC [9]: 16.4 µM (≈ 37.5 µg/mL)
MIC [10]: 43.7 µM (≈ 100 µg/mL)
SMILES: CC[C@H](C)[C@H](NC(=O)[C@H](C)NC(=O)[C@H](CCCN=C(N)N)NC(=O)[C@H](Cc1ccc(O)cc1)NC(=O)[C@H](CC(C)C)NC(=O)[C@H](CC(N)=O)NC(=O)[C@H](Cc1ccc(O)cc1)NC(=O)CNC(=O)[C@H](C)NC(=O)[C@@H](NC(=O)[C@@H](NC(=O)[C@@H](NC(=O)[C@H](CCCN=C(N)N)NC(=O)[C@@H](NC(=O)[C@@H](NC(=O)[C@@H](NC(=O)[C@@H]1CCCN1)C(C)C)C(C)C)[C@@H](C)CC)[C@@H](C)O)C(C)C)C(C)C)C(=O)N[C@@H](CCCCN)C(=O)N[C@@H](CCCCN)C(=O)N[C@@H](CCCCN)C(=O)O [PVVIRTVVAGYNLYRAIKKK]

MIC [12]: 2.11 µM (≈ 5 µg/mL)
MIC [13]: 19.1 µM (≈ 45.2 µg/mL)
MIC [10]: 3.37 µM (≈ 8 µg/mL)
SMILES: CC[C@H](C)[C@H](NC(=O)[C@H](CCCN=C(N)N)NC(=O)[C@H](CCCN=C(N)N)NC(=O)[C@@H]1CCCN1C(=O)[C@@H]1CCCN1C(=O)[C@H](CCCN=C(N)N)NC(=O)[C@@H]1CCCN1C(=O)[C@H](CCCN=C(N)N)NC(=O)[C@@H]1CCCN1C(=O)[C@H](CC(C)C)NC(=O)[C@H](Cc1ccc(O)cc1)NC(=O)[C@@H]1CCCN1C(=O)[C@@H]1CCCN1C(=O)[C@H](CCCCN)NC(=O)[C@@H]1CCCN1C(=O)[C@@H](N)C(C)C)C(=O)N[C@@H](Cc1ccc(O)cc1)C(=O)N[C@@H](CC(N)=O)C(=O)N[C@@H](CCCN=C(N)N)C(N)=O [VPKPPYLPRPRPPRRIYNR]

MIC [12]: 0.516 µM (≈ 1.3 µg/mL)
MIC [13]: 2.24 µM (≈ 5.65 µg/mL)
MIC [10]: 0.198 µM (≈ 0.5 µg/mL)
SMILES: CC[C@H](C)[C@H](NC(=O)[C@H](CCCN=C(N)N)NC(=O)[C@H](CCCN=C(N)N)NC(=O)[C@@H]1CCCN1C(=O)[C@H](Cc1c[nH]c2ccccc12)NC(=O)[C@H](CCCN=C(N)N)NC(=O)[C@@H]1CCCN1C(=O)[C@H](CCCN=C(N)N)NC(=O)[C@@H]1CCCN1C(=O)[C@H](CC(C)C)NC(=O)[C@H](Cc1ccc(O)cc1)NC(=O)[C@@H]1CCCN1C(=O)[C@@H]1CCCN1C(=O)[C@H](CCCCN)NC(=O)[C@H](CCCN=C(N)N)NC(=O)[C@@H](N)C(C)C)C(=O)N[C@@H](Cc1ccc(O)cc1)C(=O)N[C@@H](CC(N)=O)C(=O)N[C@@H](CCCN=C(N)N)C(N)=O [VRKPPYLPRPRWPRRIYNR]

MIC [14]: 27.9 µM (≈ 62.4 µg/mL)
MIC [7]: 6.31 µM (≈ 14.1 µg/mL)
MIC [8]: 18.1 µM (≈ 40.6 µg/mL)
SMILES: CC(C)C[C@H](NC(=O)[C@H](CCCCN)NC(=O)[C@H](CCCCN)NC(=O)[C@H](CC(C)C)NC(=O)[C@H](CC(C)C)NC(=O)[C@H](CCCCN)NC(=O)[C@H](CCCCN)NC(=O)[C@H](CC(C)C)NC(=O)[C@H](CCCCN)NC(=O)[C@H](CCCCN)NC(=O)[C@H](CC(C)C)NC(=O)[C@H](CC(C)C)NC(=O)[C@H](CCCCN)NC(=O)[C@H](CCCCN)NC(=O)[C@H](CC(C)C)NC(=O)[C@H](CC(C)C)NC(=O)[C@H](CCCCN)NC(=O)[C@@H](N)Cc1ccc(O)cc1)C(N)=O [YKLLKKLLKKLKKLLKKL]

MIC [14]: 69.6 µM (≈ 149 µg/mL)
MIC [7]: 3.96 µM (≈ 8.48 µg/mL)
MIC [8]: 1.14 µM (≈ 2.45 µg/mL)
SMILES: CC(C)C[C@H](NC(=O)[C@H](CCCCN)NC(=O)[C@H](Cc1ccccc1)NC(=O)[C@H](CC(C)C)NC(=O)[C@H](CC(C)C)NC(=O)CNC(=O)[C@H](CCCCN)NC(=O)[C@H](CC(C)C)NC(=O)[C@H](CCCCN)NC(=O)[C@@H]1CCCN1C(=O)[C@H](CC(C)C)NC(=O)[C@H](CC(C)C)NC(=O)[C@H](CC(C)C)NC(=O)[C@H](CCCCN)NC(=O)[C@H](CC(C)C)NC(=O)[C@H](CC(C)C)NC(=O)[C@H](CCCCN)NC(=O)[C@@H](N)Cc1ccc(O)cc1)C(N)=O [YKLLKLLLPKLKGLLFKL]
